Experimental findings from patent US8420636B2, “Pyrrolidinyl-alkyl-amide derivatives, their preparation, and their therapeutic application as CCR3 receptor ligands” (Sanofi, priority 2008, dated 2013) are described below.

Data set [1] concerns the target T1, hCCR3 (Homo sapiens, UniProt P51677).
T1 construct: expressed in transfected cells; host or cells: K562 and RBL2H3 cells
T1 sequence (P51677 1-355): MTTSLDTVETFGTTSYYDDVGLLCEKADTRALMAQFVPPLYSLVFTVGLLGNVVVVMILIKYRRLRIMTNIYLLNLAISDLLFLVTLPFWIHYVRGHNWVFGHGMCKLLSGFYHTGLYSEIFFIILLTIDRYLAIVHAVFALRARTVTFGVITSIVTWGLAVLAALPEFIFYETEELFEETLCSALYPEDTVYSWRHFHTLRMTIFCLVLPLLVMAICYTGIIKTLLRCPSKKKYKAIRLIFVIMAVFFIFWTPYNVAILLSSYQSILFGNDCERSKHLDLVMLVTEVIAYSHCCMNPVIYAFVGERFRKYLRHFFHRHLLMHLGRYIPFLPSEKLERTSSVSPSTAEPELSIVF
In words: Ca2+ mobilization in hCCR3-RBL and hCCR3 K562 cells (test B). The class given is cell-based. The procedure: B.) Investigation of Ca^2+ Mobilization in hCCR3-RBL and hCCR3 K562 Cells
HCCR3-K562 and hCCE3-RBL2H3 cells in 40,000 cells/well density (number of cells in one well of the microplate) are cultured for 24 hours. The cells are washed and loaded with calcium indicator dye (Calcium Plus assay Kit, Molecular Devices). The cells are incubated in the presence of the dye for 60 minutes while loading takes place. The dye is a fluorescent calcium indicator, which sensitively indicates the intracellular calcium concentration. The intracellular calcium concentration is in direct ratio with the fluorescent signal of the sample. The experiments are performed in a BMG NOVOSTAR apparatus, at […].
The selective agonists used in the experiments are:
In the experiments an agonist concentration is used which causes a 75% calcium signal compared to the maximum attainable signal.
Antagonists are added 15 minutes before the agonist treatment.
The change of the fluorescent signal is monitored for 30 seconds, during that period the process takes place.
The intensity of the maximum calcium signal following the addition of the agonist is compared with the calcium signal obtained after the addition of the same agonist, but in the presence of the inhibitor.
The activity of the compounds is characterized with the IC50 values.
(In general: Calcium assays in cells follow changes in intracellular calcium, usually with a dye or a luminescent sensor.)

The mark [2] stands for this setting: test B, inhibition of agonist-induced calcium signal in hCCR3-K562 / hCCR3-RBL2H3 cells, antagonist added 15 minutes before agonist, read-out: IC50.

pIC50: −log10 of the molar value. Read-outs that look alike come from different tables or passages of the source.

In the case of `O=C(CCc1nc2ncc(N3CCCCC3)nc2s1)NCCCN1CCCC1c1ccc(Cl)c(Cl)c1` (centres unmarked) [Example 9], the melting point – broadly, the temperature, or range, at which the solid turns liquid – is 105 °C. Moreover, the pIC50 (in general, −log10 of the IC50, conventionally taken in molar units) in data set [1] was 8.41.

With “1-(Acetylamino)-2-(3,4-dichlorophenyl)-1-(3-{[3-(5-piperidin-1-yl[1,3]thiazolo[4,5-b]pyridin-2-yl)propanoyl]amino}propyl)pyrrolidinium hydrochloride [Example 23]”, the pIC50 in data set [1] (setting [2]) was 7.89. `O=C(CCc1nc2ccc(N3CCCCC3)nc2s1)NCCCN1CCCC1c1ccc(Cl)c(Cl)c1` (centres unmarked) [Example 4, N-{3-[2-(3,4-dichlorophenyl)pyrrolidin-1-yl]propyl}-3-(5-piperidin-1-yl[1,3]thiazolo[5,4-b]pyridin-2-yl)propionamide] gave a melting point of 93 to 95 °C. The molecule further showed a pIC50 in data set [1] of 8.47. Take `O=C(CCc1nc2nc(N3CCCC3)ccc2s1)NCCC[N+]1([O-])CCCC1c1ccc(Cl)c(Cl)c1` (centres unmarked): the melting point lay in the range of 185 to 188 °C. Molecule `O=C(CCc1nc2ccc(N3CCCC3)nc2s1)NCCCN1CCCC1c1ccc(Cl)c(Cl)c1` (centres unmarked) [Example 3, N-{3-[2-(3,4-dichlorophenyl)pyrrolidin-1-yl]propyl}-3-(5-pyrrolidin-1-yl[1,3]thiazolo[5,4-b]pyridin-2-yl)propionamide] came in with a melting point of 137 to 138 °C. The negative-log IC50 (pIC50) in data set [1] was 8.30.

In the case of `O=C(CCc1nc2ccc(N3CCCCC3)nc2s1)NCCC[N+]1([O-])CCCC1c1ccc(Cl)c(Cl)c1` (centres unmarked) [Example 20], the melting point lay within 185 to 187 °C. In addition, the negative-log IC50 (pIC50) in data set [1] is 7.89. Take “N-{3-[2-(3,4-dichlorophenyl)-1-oxidopyrrolidin-1-yl]propyl}-3-(5-morpholin-4-yl[1,3]thiazolo[4,5-b]pyridin-2-yl)propionamide [Example 21]”: the pIC50 in data set [1] (setting [2]) is 7.08. Turning to `Cc1ccc2nc(CCC(=O)NCCCN3CCCC3c3ccc(Cl)c(Cl)c3)sc2c1` (centres unmarked), the melting point lay in the range of 76 to 79 °C.

On to “1-Amino-2-(3,4-dichlorophenyl)-1-(3-{[3-(5-pyrrolidin-1-yl[1,3]thiazolo[4,5-b]pyridin-2-yl)propanoyl]amino}propyl)pyrrolidinium tosylate [Example 14]”, for which the pIC50 in data set [1] (setting [2]) is 9.00. `CNc1ccc2nc(CCC(=O)NCCCN3CCCC3c3ccc(Cl)c(Cl)c3)sc2n1` (centres unmarked) [Example 2, N-{3-[2-(3,4-dichlorophenyl)pyrrolidin-1-yl]propyl}-3-(5-(methylamino)[1,3]thiazolo[5,4-b]pyridin-2-yl)propionamide] returned a melting point of 119 to 121 °C. Further, the pIC50 in data set [1] was 7.74. The molecule `Cc1ccc2nc(CCC(=O)NCCCN3CCCC3c3ccc(Cl)c(Cl)c3)sc2n1` (centres unmarked) displayed a melting point of 125 to 130 °C. On the same count and under the same terms, with `CCNC(=O)N[N+]1(CCCNC(=O)CCc2nc3nc(N4CC(C)OC(C)C4)ccc3s2)CCCC1c1ccc(Cl)c(Cl)c1.Cl` (centres unmarked) the figure was 115 to 118 °C.

For `CC1CN(c2ccc3nc(CCC(=O)NCCCN4CCCC4c4ccc(Cl)c(Cl)c4)sc3n2)CC(C)O1` (centres unmarked) [Example 11, N-{3-[2-(3,4-dichlorophenyl)pyrrolidin-1-yl]propyl}-3-(5-(2,6-dimethylmorpholin-4-yl)[1,3]thiazolo[5,4-b]pyridin-2-yl)propionamide], the pIC50 in data set [1] is 8.80. `O=C(CCc1nc2ccc(N3CCOCC3)nc2s1)NCCCN1CCCC1c1ccc(Cl)c(Cl)c1` (centres unmarked) [Example 5, N-{3-[2-(3,4-dichlorophenyl)pyrrolidin-1-yl]propyl}-3-(5-morpholin-4-yl[1,3]thiazolo[5,4-b]pyridin-2-yl)propionamide] yielded a melting point of 111 to 112 °C. In addition, in data set [1], the negative logarithm of the IC50 (pIC50) was 9.05.
